Earlier results in patent US20210213050A1, “Compositions and Methods for the Removal of Extraneous Calcium Hydroxyapatite” (HENRY FORD HEALTH SYSTEM, priority 2018, published 2021).

How the values were obtained:
[1] = fold higher than CaHA; proposed mechanism

O=S([O-])S(=O)(=O)[O-].[Na+].[Na+] [SMB, sodium metabisulfite]
CaHA remaining after topical treatment alone (porcine skin, topical SMB alone, histology after approximately 24 hours): approximately 50%

O=S([O-])([O-])=S.[Ca+2] [calcium thiosulfate salt, calcium thiosulfate]
solubility of calcium thiosulfate salt relative to CaHA [1]: 250- to 100,000 fold

O=S([O-])([O-])=S.[Na+].[Na+] [sodium thiosulfate]
ability to dissolve previously injected CaHA microspheres (porcine skin samples injected subdermally with CaHA, intralesional sodium thiosulfate 0.2 mL, 12.5 g/50 mL, alone or with topical sodium metabisulfite): able to dissolve previously injected CaHA microspheres
visible CaHA microspheres on histologic analysis of the treated area (porcine skin, intralesional sodium thiosulfate, 24 hours later): no visible CaHA microspheres were observed
